# Patent publication US20250241926A1, “HETEROCYCLIC COMPOUNDS FOR USE IN THE TREATMENT OF CANCER” (ARTIOS PHARMA LIMITED, priority 2021, published 2025)
# Molecular target: T1, Human Polθ polymerase domain (aa1820-2590) (Homo sapiens, UniProt O75417)
# T1 construct: Human Polθ polymerase domain (aa1820-2590) was expressed in E. Coli; made in house; host or cells: E. coli
# T1 sequence (O75417 1820-2590): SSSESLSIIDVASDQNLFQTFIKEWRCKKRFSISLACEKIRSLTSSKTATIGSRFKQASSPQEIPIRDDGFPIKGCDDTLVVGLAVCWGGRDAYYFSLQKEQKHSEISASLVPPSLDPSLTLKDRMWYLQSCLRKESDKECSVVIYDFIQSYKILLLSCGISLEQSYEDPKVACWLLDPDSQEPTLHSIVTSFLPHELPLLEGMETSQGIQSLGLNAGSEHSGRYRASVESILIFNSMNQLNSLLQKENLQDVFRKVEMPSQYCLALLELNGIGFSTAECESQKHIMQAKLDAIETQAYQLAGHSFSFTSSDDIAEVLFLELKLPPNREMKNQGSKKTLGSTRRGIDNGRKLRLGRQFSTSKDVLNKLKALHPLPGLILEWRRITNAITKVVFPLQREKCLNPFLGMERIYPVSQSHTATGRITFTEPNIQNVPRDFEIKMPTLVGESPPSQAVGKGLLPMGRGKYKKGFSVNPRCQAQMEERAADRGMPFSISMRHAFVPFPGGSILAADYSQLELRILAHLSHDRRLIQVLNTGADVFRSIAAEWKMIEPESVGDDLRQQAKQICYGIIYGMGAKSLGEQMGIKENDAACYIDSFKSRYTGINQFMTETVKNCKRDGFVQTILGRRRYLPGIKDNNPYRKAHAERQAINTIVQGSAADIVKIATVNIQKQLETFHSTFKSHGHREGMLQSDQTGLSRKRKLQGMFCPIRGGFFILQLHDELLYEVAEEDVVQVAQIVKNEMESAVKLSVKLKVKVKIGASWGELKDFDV
# Experiment: Polθ Polymerase Domain Kinact/Kl Assay (PicoGreen)
# Format: biochemical
# Settings: covalent inhibitors, kobs vs [I] fit, 0.8 nM Polθ, 100 nM DNA substrate
# Method: Polθ Polymerase Domain Kinact/Kl Assay
# A PicoGreen assay was used to measure the Kinact and Kl values of covalent compounds that inhibit the activity of Polθ in vitro.
# Human Polθ polymerase domain (aa1820-2590) was expressed in E. Coli, purified, aliquoted and stored at −80° C. until required. Polθ substrate was generated from a 1.2:1 mix of DNA II Short to DNA II Long to give a final concentration of […] substrate in annealing buffer (20 mM Tris pH 7.5, 50 mM NaCl). The substrate was heated in 50 mL aliquots to 95° C. in a heating block for 5 min before the heating block switched off, the reaction left to cool to rt and stored at −20° C. until required.
# Assay measurements were performed with 1× buffer comprising 25 mM Tris pH 7.5, 12.5 mM NaCl, […], 5% (v/v) glycerol, 0.01% v/v Triton x-100, 0.1 mg/ml BSA, 1 mM DTT. Test compounds were prepared by dilution in 100% DMSO to give a 12 μM intermediate stock of each (100× final top concentration). 100 nL of 23× 1:1.5-fold serial dilutions and a DMSO only control were dispensed using the Tecan dispenser into Greiner 384 well black low volume plates (product code 784076). DMSO concentration was maintained at 1% of the final assay volume by back filling with DMSO.
# 2× Working stock of substrate (200 nM of DNA substrate and […] dNTPs) and enzyme (1.4 nM Polθ) were made up in assay buffer. 5 μL/well of both enzyme and substrate 2× solutions were dispensed using a Tempest dispenser (Formulatrix) into assay plates that had been pre-dispensed with compound to give a final assay concentration of 100 nM DNA substrate, […] dNTPs and 0.8 nM Polθ. To stop the reaction, […] of a solution containing 25 mM Tris-HCl pH 7.5 and 20 mM EDTA was added at […] (t=0, 2.5, 5, 7.5, 10, 12.5, 15, 20, 25, 30, 35, 40, 45, 50, 55 and 60 min) using the Tempest's time delay function. The plates were covered during the time course to prevent evaporation. After completing the assay, 5 μL of detection reagent (25 mM Tris-HCl pH 7.5 and 2.5% (v/v) PicoGreen) was dispensed into the wells using a Tempest liquid handler (Formulatrix) and plates subsequently read on the CLARIOstar Plus (BMG Labtech) using the default optical settings for fluorescein and the auto gain/focus settings.
# All data analysis was carried out using GraphPad Prism V. 8 (GraphPad Software Inc, San Diego, CA) Time course data for each inhibitor concentration was fitted to equation 1 to determine kobs values.^1 Any time points where the control (DMSO alone) reaction was no longer linear were excluded from the analysis.
# A secondary plot of kobs vs [I] is used to determine the Kinact and Kl parameters (for a 2-step covalent inhibitor) by fitting to equation 2.1
# [formula] • 1) Evaluation of Enzyme Inhibitors in Drug Discovery (Ch9), R. A Copeland, Wiley, 2nd Edition 2013.
row,kinact/KI [M⁻¹ s⁻¹],Molecule
1,500000,"(S)-2-((6-(2-(4-(1-Acrylo- ylazetidin-3-yl)piperazin- 1-yl)ethyl)-7-fluoro-1- methyl-2-oxo-1,2,3,4,5,6- hexahydrobenzo[b][1,4] diazocin-3-yl)amino)-6- methyl-4-(trifluorometh- yl)nicotinonitrile [Example 11]"

# Same assay, conditions: covalent inhibitors, kobs vs [I] fit, 0.8 nM Polθ, 100 nM DNA substrate, read-out: Kinact/KI
row,Molecule,kinact/KI [M⁻¹ s⁻¹]
1,"C=CC(=O)N1CC2(CN(CCN3CC[C@H](Nc4nc(C)cc(C(F)(F)F)c4C#N)C(=O)N(C)c4cccc(F)c43)C[C@@H]3COCCN32)C1 [Example 61, 2-(((S)-6-(2-((R)-1-A cryloyltetrahydro-1′H-spiro[azetidine-3,6′-pyrazino[2,1-c][1,4]oxazin]-8′(7′H)-yl)ethyl)-7-fluoro-1-methyl-2-oxo-1,2,3,4,5,6-hexahydrobenzo[b][1,4]diazocin-3-yl)amino)-6-methyl-4-(trifluoromethyl)nicotinonitrile]",500000
2,"C=CC(=O)N1CC(OCCCN2CC[C@H](Nc3nc(C)cc(C(F)(F)F)c3C#N)C(=O)N(C)c3ccccc32)C1 [Example 53, (S)-2-((6-(3-((1-Acryloylazetidin-3-yl)oxy)propyl)-1-methyl-2-oxo-1,2,3,4,5,6-hexahydrobenzo[b][1,4]diazocin-3-yl)amino)-6-methyl-4-(trifluoromethyl)nicotinonitrile]",500000
3,"C=CC(=O)N1CCN2CCN(CCN3CC[C@H](Nc4nc(C)cc(C(F)(F)F)c4C#N)C(=O)N(C)c4cccc(F)c43)CC2C1 (single isomer, unassigned) [Example 72A]",180000
4,"C=CC(=O)N1CC2(CN(CCN3CC[C@H](Nc4nc(C)cc(C(F)(F)F)c4C#N)C(=O)N(CC)c4cccc(F)c43)CCN2)C1 [Example 70, (S)-2-((6-(2-(2-Acryloyl-2,5,8-triazaspiro[3.5]nonan-8-yl)ethyl)-1-ethyl-7-fluoro-2-oxo-1,2,3,4,5,6-hexahydrobenzo[b][1,4]diazocin-3-yl)amino)-6-methyl-4-(trifluoromethyl)nicotinonitrile]",1.3e+06
5,"C=CC(=O)N1CC2(CN(CCN3CC[C@H](Nc4nc(C)cc(C(F)(F)F)c4C#N)C(=O)N(C)c4cccc(F)c43)CCN2C(C)=O)C1 [Example 71, (S)-2-((6-(2-(5-Acetyl-2-acryloyl-2,5,8-triazaspiro[3.5]nonan-8-yl)ethyl)-7-fluoro-1-methyl-2-oxo-1,2,3,4,5,6-hexahydrobenzo[b][1,4]diazocin-3-yl)amino)-6-methyl-4-(trifluoromethyl)nicotinonitrile]",1.4e+06
6,"Cc1cc(C(F)(F)F)c(C#N)c(N[C@H]2CCN(CCN3CC4(C3)CN(C(=O)/C=C/CN(C)C)C4)c3ccccc3N(C)C2=O)n1 [Example 4, (S,E)-2-((6-(2-(6-(4-(Dimethylamino)but-2-enoyl)-2,6-diazaspiro[3.3]heptan-2-yl)ethyl)-1-methyl-2-oxo-1,2,3,4,5,6-hexahydrobenzo[b][1,4]diazocin-3-yl)amino)-6-methyl-4-(trifluoromethyl)nicotinonitrile]",300000

# Now from value to molecule:
row,kinact/KI [M⁻¹ s⁻¹],Molecule
1,1.2e+06,"Cc1cc(C(F)(F)F)c(C#N)c(N[C@H]2CCN(CCN(C)C(=O)C3CN(C(=O)/C=C/CN(C)C)C3)c3c(F)cccc3N(C)C2=O)n1 [Example 29, (S,E)-N-(2-(4-((3-Cyano-6-methyl-4-(trifluoromethyl)pyridin-2-yl)amino)-10-fluoro-6-methyl-5-oxo-3,4,5,6-tetrahydrobenzo[b][1,4]diazocin-1(2H)-yl)ethyl)-1-(4-(dimethylamino)but-2-enoyl)-N-methylazetidine-3-carboxamide]"
2,1e+06,"Cc1cc(C(F)(F)F)c(C#N)c(N[C@H]2CCN(CCCN3CCN(C(=O)/C=C/CN(C)C)CC3)c3cc(F)ccc3N(C)C2=O)n1 [Example 39, (S,E)-2-((6-(3-(4-(4-(Dimethylamino)but-2-enoyl)piperazin-1-yl)propyl)-8-fluoro-1-methyl-2-oxo-1,2,3,4,5,6-hexahydrobenzo[b][1,4]diazocin-3-yl)amino)-6-methyl-4-(trifluoromethyl)nicotinonitrile]"
3,110000,"Cc1cc(C(F)(F)F)c(C#N)c(N[C@H]2CCN(CCOC3CCN(C(=O)/C=C/CN(C)C)CC3)c3c(F)cccc3N(C)C2=O)n1 [Example 49, (S,E)-2-((6-(2-((1-(4-(Dimethyl-amino)but-2-enoyl)piperidin-4-yl)oxy)ethyl)-7-fluoro-1-methyl-2-oxo-1,2,3,4,5,6-hexahydrobenzo [b][1,4]diazocin-3-yl)amino)-6-methyl-4-(tri-fluoromethyl)-nicotinonitrile]"
4,940000,"C#CCOC(=O)N1CCN(CCN2CC[C@H](Nc3nc(C)cc(C(F)(F)F)c3C#N)C(=O)N(C)c3cccc(F)c32)CC12CN(C(=O)/C=C/CN(C)C)C2 [Example 27, (S,E)-Prop-2-yn-1-yl 8-(2-(4-((3-cyano-6-methyl-4-(trifluoromethyl)pyridin-2-yl)amino)-10-fluoro-6-methyl-5-oxo-3,4,5,6-tetrahydrobenzo[b][1,4]diazocin-1(2H)-yl)ethyl)-2-(4-(dimethylamino)but-2-enoyl)-2,5,8-triazaspiro[3.5]nonane-5-carboxylate]"
5,700000,"Cc1cc(C(F)(F)F)c(C#N)c(N[C@H]2CCN(CCCOC3CN(C(=O)/C=C/[C@@H]4CCCN4C)C3)c3c(F)cccc3N(C)C2=O)n1 [Example 54, 2-(((S)-7-Fluoro-1-methyl-6-(3-((1-((E)-3-((S)-1-methylpyrrolidin-2-yl)acryloyl)azetidin-3-yl)oxy)propyl)-2-oxo-1,2,3,4,5,6-hexahydrobenzo[b][1,4]diazocin-3-yl)amino)-6-methyl-4-(trifluoromethyl)nicotinonitrile]"
6,40000,"C=CC(=O)N1CC(N2CC(=O)N(C)C(CN3CC[C@H](Nc4nc(C)cc(C(F)(F)F)c4C#N)C(=O)N(C)c4cccc(F)c43)C2)C1 (single isomer, unassigned) [Example 58B]"
7,120000,"Cc1cc(C(F)(F)F)c(C#N)c(N[C@H]2CCN(C[C@@H]3CN(C4CN(C(=O)/C=C/CN(C)C)C4)CCO3)c3c(F)cccc3N(C)C2=O)n1 [Example 59, 2-(((S)-6-(((S)-4-(1-((E)-4-(Dimethylamino)but-2-enoyl)azetidin-3-yl)morpholin-2-yl)methyl)-7-fluoro-1-methyl-2-oxo-1,2,3,4,5,6-hexahydrobenzo[b][1,4]diazocin-3-yl)amino)-6-methyl-4-(trifluoromethyl)nicotinonitrile]"
8,680000,"Cc1cc(C(F)(F)F)c(C#N)c(N[C@H]2CCN(CC(O)CN3CCN(C(=O)/C=C/CN(C)C)CC3)c3cc(F)ccc3N(C)C2=O)n1 (single isomer, unassigned) [Example 34B]"
